Our source for the Ki values is US20080318943A1, “Compounds and Uses Thereof - 848” (ASTRAZENECA AB, priority 2007, published 2008).

In general, Ki refers to a dissociation constant, usually derived from enzyme kinetics or from competition with a known ligand. A high value points to lower affinity.

In this experiment the target is T1, GABAA2 receptors (α2, β3, γ2 receptor subunits transfected into Sf9 cells) (Homo sapiens, UniProt P18507+P47869).
T1 construct: host or cells: Sf9 cells (membranes)
T1 sequence (P47869 29-451): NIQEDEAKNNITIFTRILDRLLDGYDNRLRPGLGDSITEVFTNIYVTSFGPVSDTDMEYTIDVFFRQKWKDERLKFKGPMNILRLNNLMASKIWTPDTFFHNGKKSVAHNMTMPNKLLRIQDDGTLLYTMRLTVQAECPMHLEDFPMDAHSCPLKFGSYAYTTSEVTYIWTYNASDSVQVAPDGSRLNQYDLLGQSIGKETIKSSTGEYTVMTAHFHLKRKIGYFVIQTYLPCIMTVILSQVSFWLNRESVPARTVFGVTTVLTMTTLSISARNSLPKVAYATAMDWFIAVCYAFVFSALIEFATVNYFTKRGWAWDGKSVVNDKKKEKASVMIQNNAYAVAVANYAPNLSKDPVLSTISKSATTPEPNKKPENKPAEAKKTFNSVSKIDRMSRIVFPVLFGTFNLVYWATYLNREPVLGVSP
T1 sequence (P28472 26-473 partner): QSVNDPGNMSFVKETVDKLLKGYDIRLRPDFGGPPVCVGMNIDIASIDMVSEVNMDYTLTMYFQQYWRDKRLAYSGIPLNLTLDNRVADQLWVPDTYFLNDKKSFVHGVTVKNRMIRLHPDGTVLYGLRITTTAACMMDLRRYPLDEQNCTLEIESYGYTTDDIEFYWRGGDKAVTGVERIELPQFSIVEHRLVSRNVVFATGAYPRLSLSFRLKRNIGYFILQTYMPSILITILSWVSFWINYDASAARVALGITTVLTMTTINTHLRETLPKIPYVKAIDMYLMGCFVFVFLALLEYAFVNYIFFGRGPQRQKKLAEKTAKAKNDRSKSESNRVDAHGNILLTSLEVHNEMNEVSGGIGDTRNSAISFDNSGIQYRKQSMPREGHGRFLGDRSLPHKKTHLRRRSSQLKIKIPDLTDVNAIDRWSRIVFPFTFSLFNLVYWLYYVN
T1 sequence (P18507 40-475): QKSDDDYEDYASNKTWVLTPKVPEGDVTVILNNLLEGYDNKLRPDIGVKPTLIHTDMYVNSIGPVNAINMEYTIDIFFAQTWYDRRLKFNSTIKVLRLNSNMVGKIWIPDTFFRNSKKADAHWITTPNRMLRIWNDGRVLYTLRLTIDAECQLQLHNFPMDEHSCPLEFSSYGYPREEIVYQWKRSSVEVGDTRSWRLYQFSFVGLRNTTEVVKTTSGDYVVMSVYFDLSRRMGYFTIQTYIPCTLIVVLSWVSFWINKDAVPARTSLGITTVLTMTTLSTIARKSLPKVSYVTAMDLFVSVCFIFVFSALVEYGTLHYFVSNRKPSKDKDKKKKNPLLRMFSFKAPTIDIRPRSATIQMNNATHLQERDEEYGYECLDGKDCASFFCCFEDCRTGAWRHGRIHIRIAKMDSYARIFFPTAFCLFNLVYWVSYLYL
As to the kind of experiment: GABAA2 Binding Method ([3H]-Flunitrazepam displacement). The settings on record: [3H]-Flunitrazepam ~2 nM, α2β3γ2 Sf9 membranes, 1 hr at 4° C. Here is the method:
In some embodiments, the binding test is directed to a subtype of GABAA receptors, such as GABAA1 receptors (i.e., those containing the α1 subunit), GABAA2 receptors (i.e., those containing the α2 subunit), GABAA3 receptors (i.e., those containing the α3 subunit) and GABAA5 receptors (i.e., those containing the α5 subunit).
[^3H]-Flunitrazepam (Cat #NET567): Prepare 10× stock=20 nM, [F} in assay=˜2 nM
1. […] Add 5 ul of 30 uM flumazenil to wells 12 D-E for 50% control wells.
5. Add 25 μl [^3H]-Flunitrazepam (Automation Program 6). Incubate for 1 hr at 4° C.
6. Collect membranes on a cell harvester onto GF/B filter plates (pre-wet with dH2O and wash 5×400 μl/well, with cold assay buffer. (First 3 washes are considered hot; last two are cold.)
Data is analyzed by calculating percent of control, IC50, and Ki in an XLfit template. The following formula is used in the templates: […]
Consider `CCCN1Cc2nc3c(-c4c(C#N)cccc4OC)cccc3c(N)c2C1=O` [2-(9-amino-1-oxo-2-propyl-2,3-dihydro-1H-pyrrolo[3,4-b]quinolin-5-yl)-3-methoxybenzonitrile], for which the Ki worked out at 0.0757 µM. The same measure for `CN1Cc2nc3c(-c4ccccc4C#N)cccc3c(N)c2C1=O` [2-(9-amino-2-methyl-1-oxo-2,3-dihydro-1H-pyrrolo[3,4-b]quinolin-5-yl)benzonitrile]: 0.0643 µM; for `CCCN1Cc2nc3c(-c4ccc(C#N)cc4)cccc3c(N)c2C1=O` [4-(9-amino-1-oxo-2-propyl-2,3-dihydro-1H-pyrrolo[3,4-b]quinolin-5-yl)benzonitrile]: 0.0521 µM. The same measure for `CCCN1Cc2nc3c(-c4ccc(F)c(C#N)c4)cccc3c(N)c2C1=O` [5-(9-amino-1-oxo-2-propyl-2,3-dihydro-1H-pyrrolo[3,4-b]quinolin-5-yl)-2-fluorobenzonitrile]: 0.0745 µM.

In the case of `CCC(C)N1Cc2nc3c(-c4c(F)cccc4OC)cccc3c(N)c2C1=O` (centres unmarked) [9-amino-2-(2-butyl)-5-(2-fluoro-6-methoxyphenyl)-2,3-dihydro-1H-pyrrolo[3,4-b]quinolin-1-one], the inhibition constant (Ki) came out at 0.0462 µM.

In turn, `COc1cccc(F)c1-c1cccc2c(N)c3c(nc12)CN(Cc1cccc(Cl)c1)C3=O` [9-amino-2-(3-chlorobenzyl)-5-(2-fluoro-6-methoxyphenyl)-2,3-dihydro-1H-pyrrolo[3,4-b]quinolin-1-one] came in with an inhibition constant Ki of 0.0278 µM. The value for `COc1ccc(CN2Cc3nc4c(-c5cnn(C)c5)cccc4c(N)c3C2=O)cc1` [9-amino-2-(4-methoxybenzyl)-5-(1-methyl-1H-pyrazol-4-yl)-2,3-dihydro-1H-pyrrolo[3,4-b]quinolin-1-one] was 0.0706 µM. The value for `COc1ccc(CN2Cc3nc4c(-c5ccccc5C(F)(F)F)cccc4c(N)c3C2=O)cc1` [9-amino-2-(4-methoxybenzyl)-5-(2-(trifluoromethyl)phenyl)-2,3-dihydro-1H-pyrrolo[3,4-b]quinolin-1-one] was 0.0341 µM. The value for `COc1ccc(CN2Cc3nc4c(-c5ccc(C)nc5)cccc4c(N)c3C2=O)cc1` [9-amino-2-(4-methoxybenzyl)-5-(6-methylpyridin-3-yl)-2,3-dihydro-1H-pyrrolo[3,4-b]quinolin-1-one] was 0.0605 µM; that for `CCCCN1Cc2nc3c(-c4ccc(C)nc4)cccc3c(N)c2C1=O` [9-amino-2-butyl-5-(6-methylpyridin-3-yl)-2,3-dihydro-1H-pyrrolo[3,4-b]quinolin-1-one] was 0.0905 µM.

The compound `Nc1c2c(nc3c(-c4cc(F)cc(F)c4)cccc13)CN(C1CCC1)C2=O` [9-amino-2-cyclobutyl-5-(3,5-difluorophenyl)-2,3-dihydro-1H-pyrrolo[3,4-b]quinolin-1-one] returned a Ki of 0.0393 µM. `COc1ccc(-c2cccc3c(N)c4c(nc23)CN(C2CC2)C4=O)c(OC)c1` [9-amino-2-cyclopropyl-5-(2,4-dimethoxyphenyl)-2,3-dihydro-1H-pyrrolo[3,4-b]quinolin-1-one]: the affinity corresponds to a Ki of 0.0584 µM. The Ki values of the last two compounds are within 1.5-fold of each other. The value for `COc1ncc(-c2cccc3c(N)c4c(nc23)CN(C2CC2)C4=O)c(OC)n1` [9-amino-2-cyclopropyl-5-(2,4-dimethoxypyrimidin-5-yl)-2,3-dihydro-1H-pyrrolo[3,4-b]quinolin-1-one] was 0.0782 µM.

`COc1cc(F)c(-c2cccc3c(N)c4c(nc23)CN(C2CC2)C4=O)cc1F` [9-amino-2-cyclopropyl-5-(2,5-difluoro-4-methoxyphenyl)-2,3-dihydro-1H-pyrrolo[3,4-b]quinolin-1-one] yielded an inhibitory constant (Ki) of 0.0368 µM.

`COc1ccc(OC)c(-c2c(SC)ccc3c(N)c4c(nc23)CN(C2CC2)C4=O)c1` [9-amino-2-cyclopropyl-5-(2,5-dimethoxyphenyl)-6-(methylthio)-2,3-dihydro-1H-pyrrolo[3,4-b]quinolin-1-one] showed a Ki of 0.0367 µM. The value for `COc1ccccc1-c1cccc2c(N)c3c(nc12)CN(C1CC1)C3=O` [9-amino-2-cyclopropyl-5-(2-methoxyphenyl)-2,3-dihydro-1H-pyrrolo[3,4-b]quinolin-1-one] was 0.0541 µM; that for `COc1cc(F)ccc1-c1cccc2c(N)c3c(nc12)CN(C1CC1)C3=O` [9-amino-2-cyclopropyl-5-(4-fluoro-2-methoxyphenyl)-2,3-dihydro-1H-pyrrolo[3,4-b]quinolin-1-one] was 0.0831 µM; that for `COc1ccc(F)cc1-c1cccc2c(N)c3c(nc12)CN(C1CC1)C3=O` [9-amino-2-cyclopropyl-5-(5-fluoro-2-methoxyphenyl)-2,3-dihydro-1H-pyrrolo[3,4-b]quinolin-1-one] was 0.0734 µM. The same measure for `Nc1c2c(nc3c(-c4cccnc4)cccc13)CN(C1CC1)C2=O` [9-amino-2-cyclopropyl-5-(pyridin-3-yl)-2,3-dihydro-1H-pyrrolo[3,4-b]quinolin-1-one]: 0.0647 µM. On to `CCN1Cc2nc3c(-c4cc(F)cc(OC)c4)cccc3c(N)c2C1=O` [9-amino-2-ethyl-5-(3-fluoro-5-methoxyphenyl)-2,3-dihydro-1H-pyrrolo[3,4-b]quinolin-1-one], for which the Ki was determined as 0.0343 µM. For the compound `CCN1Cc2nc3c(-c4ccc(C)nc4)cccc3c(N)c2C1=O` [9-amino-2-ethyl-5-(6-methylpyridin-3-yl)-2,3-dihydro-1H-pyrrolo[3,4-b]quinolin-1-one], the Ki is 0.0776 µM.

The compound `CCN1Cc2nc3c(-c4cccc(OC)c4F)c(F)ccc3c(N)c2C1=O` [9-amino-2-ethyl-6-fluoro-5-(2-fluoro-3-methoxyphenyl)-2,3-dihydro-1H-pyrrolo[3,4-b]quinolin-1-one] displayed an inhibition constant Ki of 0.00529 µM. The value for `Cc1ccncc1-c1cccc2c(N)c3c(nc12)CN(C)C3=O` [9-amino-2-methyl-5-(4-methylpyridin-3-yl)-2,3-dihydro-1H-pyrrolo[3,4-b]quinolin-1-one] was 0.0649 µM; that for `CCCN1Cc2nc3c(-c4cnn(C)c4)cccc3c(N)c2C1=O` [9-amino-5-(1-methyl-1H-pyrazol-4-yl)-2-propyl-2,3-dihydro-1H-pyrrolo[3,4-b]quinolin-1-one] was 0.0997 µM. As to `COc1ccc(CN2Cc3nc4c(-c5cccc(F)c5F)cccc4c(N)c3C2=O)cc1` [9-amino-5-(2,3-difluorophenyl)-2-(4-methoxybenzyl)-2,3-dihydro-1H-pyrrolo[3,4-b]quinolin-1-one], affinity was put at a Ki of 0.0982 µM.

`CCN1Cc2nc3c(-c4cccc(OC)c4OC)cccc3c(N)c2C1=O` [9-amino-5-(2,3-dimethoxyphenyl)-2-ethyl-2,3-dihydro-1H-pyrrolo[3,4-b]quinolin-1-one] returned a Ki of 0.0819 µM. The value for `CCN1Cc2nc3c(-c4ccc(OC)cc4OC)cccc3c(N)c2C1=O` [9-amino-5-(2,4-dimethoxyphenyl)-2-ethyl-2,3-dihydro-1H-pyrrolo[3,4-b]quinolin-1-one] was 0.0991 µM. The value for `COc1ccc(-c2cccc3c(N)c4c(nc23)CN(C)C4=O)c(OC)c1` [9-amino-5-(2,4-dimethoxyphenyl)-2-methyl-2,3-dihydro-1H-pyrrolo[3,4-b]quinolin-1-one] was 0.079 µM. The same measure for `COc1ccc(CN2Cc3nc4c(-c5cc(OC)ccc5OC)cccc4c(N)c3C2=O)cc1` [9-amino-5-(2,5-dimethoxyphenyl)-2-(4-methoxybenzyl)-2,3-dihydro-1H-pyrrolo[3,4-b]quinolin-1-one]: 0.0702 µM; for `CCCN1Cc2nc3c(-c4ccc(Cl)nc4Cl)cccc3c(N)c2C1=O` [9-amino-5-(2,6-dichloropyridin-3-yl)-2-propyl-2,3-dihydro-1H-pyrrolo[3,4-b]quinolin-1-one]: 0.0216 µM; for `CCN1Cc2nc3c(-c4c(OC)cccc4OC)cccc3c(N)c2C1=O` [9-amino-5-(2,6-dimethoxyphenyl)-2-ethyl-2,3-dihydro-1H-pyrrolo[3,4-b]quinolin-1-one]: 0.0825 µM. For the compound `COc1ccc(-c2cccc3c(N)c4c(nc23)CN(C)C4=O)c(F)c1` [9-amino-5-(2-fluoro-4-methoxyphenyl)-2-methyl-2,3-dihydro-1H-pyrrolo[3,4-b]quinolin-1-one], the inhibition constant (Ki) came to 0.0778 µM. The value for `COc1ccc(F)c(-c2cccc3c(N)c4c(nc23)CN(C)C4=O)c1` [9-amino-5-(2-fluoro-5-methoxyphenyl)-2-methyl-2,3-dihydro-1H-pyrrolo[3,4-b]quinolin-1-one] was 0.0558 µM; that for `CCCN1Cc2nc3c(-c4cc(-c5ccncc5)ccc4OC)cccc3c(N)c2C1=O` [9-amino-5-(2-methoxy-5-(pyridin-4-yl)phenyl)-2-propyl-2,3-dihydro-1H-pyrrolo[3,4-b]quinolin-1-one] was 0.0511 µM. As for `COc1ccc(CN2Cc3nc4c(-c5cc(C)ccc5OC)cccc4c(N)c3C2=O)cc1` [9-amino-5-(2-methoxy-5-methylphenyl)-2-(4-methoxybenzyl)-2,3-dihydro-1H-pyrrolo[3,4-b]quinolin-1-one], the inhibitory constant (Ki) was 0.0551 µM. The value for `COc1ccc(C)cc1-c1cccc2c(N)c3c(nc12)CN(C)C3=O` [9-amino-5-(2-methoxy-5-methylphenyl)-2-methyl-2,3-dihydro-1H-pyrrolo[3,4-b]quinolin-1-one] was 0.0702 µM; that for `CCCN1Cc2nc3c(-c4cnc(OC)nc4)cccc3c(N)c2C1=O` [9-amino-5-(2-methoxypyrimidin-5-yl)-2-propyl-2,3-dihydro-1H-pyrrolo[3,4-b]quinolin-1-one] was 0.0758 µM; that for `COc1ccc(-c2cccc3c(N)c4c(nc23)CN(C)C4=O)cc1OC` [9-amino-5-(3,4-dimethoxyphenyl)-2-methyl-2,3-dihydro-1H-pyrrolo[3,4-b]quinolin-1-one] was 0.088 µM.
